Tests used:
[1] = Half life in human, iv; assay type: ADME
[2] = tested on: Bacillus subtilis; experiment: Antibacterial activity against Bacillus subtilis ATCC 6633 assessed as zone of inhibition; assay type: functional
[3] = tested on: Staphylococcus aureus; experiment: Antibacterial activity against Staphylococcus aureus ATCC 25923 assessed as zone of inhibition; assay type: functional
[4] = Half life in po dosed human; assay type: ADME, organism-based; details: in vivo
[5] = tested on: Mus musculus; experiment: Anti-diabetic activity against 16 hrs fasted KK/Ay mouse assessed as reduced blood glucose level at 2g/kg, po measured after 2 hrs by oral pyruvate tolerance test; assay type: functional
[6] = Antioxidant activity assessed as DPPH radical scavenging activity; assay type: functional; details: read-out: IC50
[7] = tested on: MCF7; experiment: Antiproliferative activity against human MCF7 cells; assay type: functional, cell-based; details: Homo sapiens, MCF7; read-out: IC50
[8] = target: T1, Polyunsaturated fatty acid 5-lipoxygenase (Homo sapiens, UniProt P09917); experiment: Inhibition of 5-LOX (unknown origin)
T1 sequence (P09917 whole entry): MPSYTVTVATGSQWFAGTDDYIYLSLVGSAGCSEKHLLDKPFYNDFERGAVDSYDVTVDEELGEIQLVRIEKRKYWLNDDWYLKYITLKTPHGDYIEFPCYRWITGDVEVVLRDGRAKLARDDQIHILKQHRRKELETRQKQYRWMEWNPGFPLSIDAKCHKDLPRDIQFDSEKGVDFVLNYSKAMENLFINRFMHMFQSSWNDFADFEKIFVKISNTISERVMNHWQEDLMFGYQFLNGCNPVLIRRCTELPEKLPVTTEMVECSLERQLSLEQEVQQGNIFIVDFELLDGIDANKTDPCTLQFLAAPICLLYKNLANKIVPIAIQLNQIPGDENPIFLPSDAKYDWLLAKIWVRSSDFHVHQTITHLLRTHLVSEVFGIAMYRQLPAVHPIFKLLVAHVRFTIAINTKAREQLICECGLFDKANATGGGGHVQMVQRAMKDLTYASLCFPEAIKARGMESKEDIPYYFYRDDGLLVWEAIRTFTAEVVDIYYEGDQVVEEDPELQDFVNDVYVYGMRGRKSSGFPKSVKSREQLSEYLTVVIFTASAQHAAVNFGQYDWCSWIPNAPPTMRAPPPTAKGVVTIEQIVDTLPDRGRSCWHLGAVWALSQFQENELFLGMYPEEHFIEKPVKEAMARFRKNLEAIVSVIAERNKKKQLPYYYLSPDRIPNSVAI

[9] = tested on: Bacillus subtilis; experiment: Antibacterial activity against Bacillus subtilis ATCC 6633 assessed as zone of inhibition incubated for 48 hrs by agar diffusion method; assay type: functional
[10] = tested on: Escherichia coli; experiment: Antibacterial activity against Escherichia coli ATCC 35218 assessed as zone of inhibition incubated for 48 hrs by agar diffusion method; assay type: functional
[11] = tested on: Arthroderma pannicola; experiment: Antifungal activity against Arthroderma pannicola assessed as diameter of zone of inhibition; assay type: functional
[12] = tested on: Candida albicans; experiment: Antifungal activity against Candida albicans assessed as zone of inhibition; assay type: functional
[13] = Antioxidant activity assessed as DPPH radical scavenging activity at 10 uM incubated for 30 mins by absorbance based assay relative to control; assay type: functional
[14] = target: T2, Glucagon receptor (Homo sapiens, UniProt P47871); experiment: Antagonist activity at wild type human GCGR
[15] = target: T2, Glucagon receptor; experiment: Antagonist activity at wild type human GCGR transfected in HEK293T cells assessed as intracellular cAMP accumulation incubated for 60 mins by FRET assay; assay type: functional, cell-based
[16] = tested on: Rattus norvegicus; experiment: Anti-inflammatory activity against carrageenan-induced paw edema in Albino rat assessed as inhibition of paw edema at 50 mg/kg, po relative to control; assay type: functional; design: scale not given: the % may be the effect or the level left
[17] = Antioxidant activity assessed as ROS scavenging activity relative to control; assay type: functional; details: dose or concentration not given here
[18] = target: Acetylcholinesterase (Homo sapiens, UniProt P22303); experiment: Inhibition of AChE (unknown origin) by Ellman's method
[19] = tested on: dsRNA; experiment: Inhibition of double stranded RNA (unknown origin); assay type: nucleic-acid assay
[20] = Elimination half life in human at 5 mg/kg, po; assay type: ADME, organism-based; details: in vivo, read-out: LambdaZ (converted)
[21] = tested on: Leishmania major; experiment: Antileishmanial activity against Leishmania major promastigotes MHOM/IL/80/Friedlin expressing firefly luciferase infected in rhesus monkey LLC-MK2 cells assessed as reduction in parasite growth incubated for 72 hrs by luciferase based luminescence analysis; assay type: functional, organism-based; details: LLC-MK2, 72 h

T2 sequence (P47871 whole entry): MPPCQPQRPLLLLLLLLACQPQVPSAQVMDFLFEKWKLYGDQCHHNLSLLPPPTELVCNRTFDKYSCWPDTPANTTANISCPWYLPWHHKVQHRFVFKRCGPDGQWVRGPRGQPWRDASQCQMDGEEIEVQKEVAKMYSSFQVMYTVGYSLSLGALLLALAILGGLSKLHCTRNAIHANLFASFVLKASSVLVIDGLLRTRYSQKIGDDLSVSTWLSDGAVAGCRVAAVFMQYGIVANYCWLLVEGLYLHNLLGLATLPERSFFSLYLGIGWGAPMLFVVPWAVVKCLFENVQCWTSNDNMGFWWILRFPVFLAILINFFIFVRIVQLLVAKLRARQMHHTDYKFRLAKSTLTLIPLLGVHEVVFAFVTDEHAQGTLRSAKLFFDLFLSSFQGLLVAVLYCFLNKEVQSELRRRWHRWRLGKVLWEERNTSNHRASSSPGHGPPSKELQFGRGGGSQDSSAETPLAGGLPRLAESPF
Chain of Acetylcholinesterase (P22303 whole entry): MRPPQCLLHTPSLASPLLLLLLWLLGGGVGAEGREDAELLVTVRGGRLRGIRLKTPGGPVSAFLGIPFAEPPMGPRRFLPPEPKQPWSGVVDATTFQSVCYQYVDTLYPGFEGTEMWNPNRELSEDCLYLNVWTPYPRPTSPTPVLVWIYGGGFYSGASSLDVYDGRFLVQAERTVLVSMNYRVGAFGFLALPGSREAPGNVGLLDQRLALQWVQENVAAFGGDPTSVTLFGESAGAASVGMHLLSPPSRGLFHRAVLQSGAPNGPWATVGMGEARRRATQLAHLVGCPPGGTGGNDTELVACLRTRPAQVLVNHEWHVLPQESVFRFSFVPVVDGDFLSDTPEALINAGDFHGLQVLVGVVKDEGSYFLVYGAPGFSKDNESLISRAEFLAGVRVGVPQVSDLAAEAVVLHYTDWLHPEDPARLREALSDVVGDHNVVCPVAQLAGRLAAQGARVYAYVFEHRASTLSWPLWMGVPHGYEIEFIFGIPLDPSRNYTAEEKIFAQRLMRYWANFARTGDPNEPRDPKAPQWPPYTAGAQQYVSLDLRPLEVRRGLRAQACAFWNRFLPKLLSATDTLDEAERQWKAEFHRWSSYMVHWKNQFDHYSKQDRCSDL

CO[C@@]1(NC(=O)Cc2cccs2)C(=O)N2C(C(=O)O)=C(COC(N)=O)CS[C@@H]21 [CEFOXITIN]
half-life [1]: 0.683 h

Clc1c(-c2nnc(CNc3ccccc3)o2)sc2ccccc12
inhibition zone (IZ) [2]: 16 mm | inhibition zone (IZ) [3]: 15 mm

CN1C(C(=O)Nc2ccccn2)=C(O)c2sccc2S1(=O)=O [TENOXICAM]
half-life [4]: 72 h

CC(=O)CC(=O)c1cc2ccccc2s1
Activity [5]: <15.6 mmol/L

COc1cc(/C=C/C(=O)c2cc3ccccc3s2)cc(OC)c1O
IC50 [6]: 6 µM

O=C(CSc1nnc(-c2sc3ccccc3c2Cl)[nH]1)c1ccc(F)cc1
inhibition zone (IZ) [2]: 16 mm | inhibition zone (IZ) [3]: 15 mm

Nc1sc2c(c1C(=O)Nc1cnc3ccccc3c1)CCCC2
IC50 [7]: 33.1 µM

Cc1ccc(-c2cc(C(F)(F)F)nn2-c2ccc(S(N)(=O)=O)cc2)cc1 [CELECOXIB]
IC50 [8]: 5.64 µM

O=c1c2ccccc2nc(-c2sc3ccccc3c2Cl)n1O
inhibition zone (IZ) [9]: 15 mm | inhibition zone (IZ) [10]: 16 mm

O=c1c2ccccc2nc(-c2sc3ccccc3c2Cl)n1-c1ccc([N+](=O)[O-])cc1
inhibition zone (IZ) [11]: 17 mm | inhibition zone (IZ) [12]: 17 mm

Cc1cc(=O)oc2c(/C=N/NC(=O)c3sc4ccccc4c3Cl)c(O)ccc12
inhibition [13]: 50%

Cc1cc(C2=NO[C@@](c3cc(Cl)c(Cl)c(Cl)c3)(C(F)(F)F)C2)sc1C(=O)NCC(=O)NCC(F)(F)F [LOTILANER]
half-life [4]: 11 h

Cc1cc(Cl)ccc1-c1ccc(NC(=O)C(Cc2ccc(C(=O)NCCS(=O)(=O)O)s2)c2ccc(-c3ccc(OC(F)(F)F)cc3)cc2)cc1 (stereo unspecified)
IC50 [14]: 6.1 µM | IC50 [15]: 4.4 µM

COc1ccc2c(c1)c(CC(=O)O)c(C)n2C(=O)c1ccc(Cl)cc1 [INDOMETHACIN]
Activity [16]: 47.73%

O=c1[nH]c(-c2sc3ccccc3c2Cl)nc2ccccc12
inhibition zone (IZ) [9]: 16 mm | inhibition zone (IZ) [10]: 12 mm

COc1ccsc1CNCC[C@@]1(c2ccccn2)CCOC2(CCCC2)C1 [OLICERIDINE]
half-life [1]: 1.3 h

CCOC(=O)c1c(NC(=O)c2c(NC(=O)CC#N)sc3c2CCC3)sc2c1CCCC2
inhibition [17]: 64.1%

CC(C(=O)O)c1ccc(C(=O)c2ccccc2)s1 (stereo unspecified) [TIAPROFENIC ACID]
half-life [4]: 1.5 h

O=C(/C=C/c1cccs1)c1ccc(OCCCCBr)cc1
IC50 [18]: 0.42 µM

O=C(C[S+]([O-])C(F)(F)F)c1cc2ccccc2s1 (stereo unspecified)
Activity [5]: <10 mmol/L

Clc1ccc(C2CC(c3ccc(Cl)s3)=NN2c2ccccc2)cc1 (stereo unspecified)
IC50 [19]: 11 µM

CONC(=O)Nc1ccc(-c2sc3c(c2CN(C)C)c(=O)n(-c2ccc(OC)nn2)c(=O)n3Cc2c(F)cccc2F)cc1 [RELUGOLIX]
half-life [4]: 25 h

N#Cc1c(-c2ccc(N3CCOCC3)cc2)csc1N
Activity [16]: 48.94%

Cc1ccc([C@@H]2O[C@H](CO)[C@@H](O)[C@H](O)[C@H]2O)cc1Cc1ccc(-c2ccc(F)cc2)s1 [CANAGLIFLOZIN ANHYDROUS]
half-life [20]: 10.6 h

CCOC(=O)c1c(NC(=O)c2cccc(C(F)(F)F)c2F)sc2c1CC(C)(C)NC2(C)C
EC50 [21]: 0.09 µM

Source: ChEMBL document CHEMBL6182828, “Medicinal chemistry-based perspectives on thiophene and its derivatives: exploring structural insights to discover plausible druggable leads” (RSC Med Chem, 2025)
